Data reported in US12577273B2, “Small molecule modulators of gut bacterial bile acid metabolism” (priority 2019, dated 2026).
Values joined by “and” are separate entries in the source; they are usually repeats but may differ in a detail not shown here. Equal entries are not always repeated. “Also recorded” adds a separate entry of the source.

Legend:
[1] = test system: three Gram negative and three Gram positive strains of human gut bacteria; test: Growth (OD600) and cell viability (CFU/mL) of the six gut bacterial strains; conditions: 100 μM inhibitor
[2] = test system: three Gram negative and three Gram positive strains of human gut bacteria; test: BSH inhibition in growing cultures of six gut bacterial strains (overall statements); format: cell-based; conditions: 100 μM inhibitor, 100 μM conjugated bile acid mixture
[3] = test system: B. theta; test: Inhibitor screen in bacteria, B. theta culture; format: cell-based, Bacteroides thetaiotaomicron VPI-5482; conditions: FIG. 2c, 100 μM inhibitor, 21 h, replicates 1-3
Method: (§1) Bacterial Culturing. All bacterial strains were cultured at 37° C. in Cullen-Haiser Gut (CHG) media (which consists of brain heart infusion media (Bacto™ BHI, BD) supplemented with 1% BBL vitamin K1-hemin solution (BD), 1% trace minerals solution (ATCC), 1% trace vitamins solution (ATCC), 5% fetal bovine serum (Hyclone), 1 g/L cellubiose, 1 g/L maltose, and 1 g/L fructose) or BHI^+ (Bacto™ BHI, BD, supplemented with 5 mg/L hemin, and 2.5 uL/L Vitamin K1). All strains were grown under anaerobic conditions in a anaerobic chamber (Coy Lab Products Airlock) with a gas mix of 5% hydrogen and 20% carbon dioxide nitrogen. Escherichia coli was grown aerobically at 37° C. in LB medium supplemented with ampicillin to select for the pET21b plasmid.
(§2) Inhibitor Screen in Bacteria. Bacterial cultures were diluted to OD600 of 0.1 in 4 mL BHI^+, containing 100 μM taurine conjugated bile acid pool 100 μM inhibitors. […] After 21 h, serial dilutions were plated on BHI^+ agar to determine cell viability (CFU/mL). […] The cultures were spun down in a centrifuge at 2,500 g for 5 mins to obtain better separation. The organic layer was then removed and the aqueous layer was extracted again using 2 mL of ethyl acetate.

[4] = test system: BSH activity in conventional mouse feces; test: Screen of inhibitors in conventional mouse feces; format: biochemical
Method: Screen of Inhibitors in Conventional Mouse Feces. […] The tubes were then frozen in dry ice for 5 mins and upon thawing were diluted with an equal volume of methanol. […] The supernatant was removed into a clean eppendorf tube and centrifuged again. […] The concentration of product detected from these assays was reported directly.

[5] = target: B. theta BSH (Bacteroides thetaiotaomicron, UniProt Q8A600); test: Inhibitor screen using rBSH, B. theta BSH (UPLC-MS % deconjugation); conditions: 100 μM inhibitor, 30 min preincubation, monitored over 21 hours
[6] = test system: B. fragilis; test: Inhibitor screen in bacteria, B. fragilis culture; format: cell-based, Bacteroides fragilis ATCC 25285; conditions: FIG. 2c, 100 μM inhibitor, 100 μM bile acid pool, 21 h, replicates 1-3
Method: as §1, §2

[7] = test system: B. adolescentis; test: Inhibitor screen in bacteria, B. adolescentis culture; format: cell-based, Bifidobacterium adolescentis L2-32; conditions: FIG. 2c, 100 μM inhibitor, 100 μM bile acid pool, 21 h, replicates 1-3
[8] = target: T1, B. longum BSH (Bifidobacterium longum, UniProt Q9KK62); test: Inhibitor screen using rBSH, B. longum BSH (UPLC-MS % deconjugation); format: biochemical, Bifidobacterium longum SBT2928; set-up: His6 (C); made in house; host or cells: Escherichia coli (as for the B. theta enzyme); conditions: 100 μM inhibitor; 2 h, 5 h and 21 h timepoints
T1 sequence (Q9KK62 1-317): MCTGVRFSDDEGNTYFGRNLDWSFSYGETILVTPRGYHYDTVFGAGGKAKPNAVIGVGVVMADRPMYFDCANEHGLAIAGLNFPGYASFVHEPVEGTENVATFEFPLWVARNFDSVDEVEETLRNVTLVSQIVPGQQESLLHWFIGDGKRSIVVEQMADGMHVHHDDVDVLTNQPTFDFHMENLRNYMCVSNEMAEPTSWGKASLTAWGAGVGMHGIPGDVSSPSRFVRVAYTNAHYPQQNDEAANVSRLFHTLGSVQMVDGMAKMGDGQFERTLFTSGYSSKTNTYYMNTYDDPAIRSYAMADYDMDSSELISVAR
Method: B. longum rBSH. Recombinant BSH from B. longum SBT2928 was expressed and purified as above, except 0.25 mM IPTG was used for protein expression and 1 mM TCEP for protein purification.
Inhibitor Screen Using rBSHs.

[9] = test system: B. theta BSH KO strain; test: Incubation with BSH-deleted B. theta strain; conditions: 100 μM inhibitor
[10] = test system: C. perfingens; format: cell-based, Clostridium perfringens ATCC 13124; conditions: FIG. 2c, C. perfingens culture; 100 μM inhibitor, 100 μM bile acid pool, 21 h; replicates 1-3
[11] = test system: L. plantarum; test: Inhibitor screen in bacteria, L. plantarum culture; format: cell-based, Lactobacillus plantarum WCFS1
[12] = test system: B. vulgatus; test: Inhibitor screen in bacteria, B. vulgatus culture; format: cell-based, Bacteroides vulgatus ATCC 8482; conditions: FIG. 2c, 100 μM inhibitor, 100 μM bile acid pool, 21 h, replicates 1-3
Method: as §1, §2

[13] = substrate: C[C@H](CCC(=O)NCCS(=O)(=O)O)[C@H]1CC[C@H]2[C@@H]3[C@H](O)C[C@@H]4C[C@H](O)CC[C@]4(C)[C@H]3C[C@H](O)[C@]12C; test: purified protein, by the assay type; conditions: other: Table 3; substrate of B. longum BSH; mean ± SEM, n = 3; pH 7.5; 37.0 °C
[14] = substrate: C[C@H](CCC(=O)NCCS(=O)(=O)O)[C@H]1CC[C@H]2[C@@H]3[C@@H](O)C[C@@H]4C[C@H](O)CC[C@]4(C)[C@H]3CC[C@]12C; test: purified protein, by the assay type
[15] = substrate: C[C@H](CCC(=O)NCCS(=O)(=O)O)[C@H]1CC[C@H]2[C@@H]3CC[C@@H]4C[C@H](O)CC[C@]4(C)[C@H]3C[C@H](O)[C@]12C; test: purified protein, by the assay type
[16] = FIG. 2c, L. plantarum culture, 100 μM inhibitor, 100 μM bile acid pool, 21 h, replicates 1-3
[17] = other: Table 1, substrate of B. longum BSH, PBS pH 7.5, 37° C.
[18] = other: Table 3, substrate of B. longum BSH, mean ± SEM, n = 3, pH 7.5, 37.0 °C

## O=C(/C=C/c1ccc(O)c(O)c1)OCCc1ccccc1 [CAPE, caffeic acid phenethyl ester, reference compound]
[1]
  effect on bacterial cell viability (CFU/mL, plated at 21 h): decreased the cell viability of the Gram negative strains tested; also recorded: inhibited the cell viability of all three Gram negative bacterial strains tested
  effect on bacterial growth (OD600 at 24 hours): inhibited the growth of the Gram positive strains tested; also recorded: inhibited the growth of all three Gram negative bacterial strains tested; also recorded: significantly inhibits the growth of the strains of Gram negative gut bacteria tested
[2]
  deconjugation / BSH inhibition in cultures of the six bacterial strains (in words): no inhibition of deconjugation was observed over the course of 21 hours in five out of the six bacterial strains; also recorded: neither riboflavin nor CAPE displayed significant inhibitory activity against any of the Gram negative strains; also recorded: No BSH inhibition in five out of the six bacterial strains
[3]; 100 μM bile acid pool
  % deconjugation of TDCA: 2.06% and 0.90% and 0.81%
  % deconjugation of TUDCA: 2.31% and 5.36% and 2.32%
  % deconjugation of TβMCA: 0.64% and 0.28% and 0.16%
[3]; 100 μM taurine conjugated bile acid pool
  % deconjugation of TCA: 0.42% and 0.72% and 0.52%
[4]; 20 μM inhibitor, 30 min, then GCDCA-d4 100 μM, 18 hours
  BSH activity in resuspended conventional mouse feces (in words): minimal inhibitory activity; also recorded: no inhibition of BSH activity in feces
[4]; either 20 μM or 100 μM
  deconjugation in resuspended mouse feces (in words): did not noticeably reduce deconjugation
[5]
  inhibition of B. theta BSH (in words): only moderate inhibition
[6]
  % deconjugation of TCA: 88.33% and 85.35% and 84.93%
  % deconjugation of TDCA: 98.95% and 98.93% and 99.13%
  % deconjugation of TUDCA: 98.66% and 98.65% and 99.13%
  % deconjugation of TβMCA: 98.64% and 98.42% and 99.12%
[7]
  % deconjugation of TCA: 100.00%
  % deconjugation of TDCA: 99.85% and 100.00% and 99.71%
  % deconjugation of TUDCA: 99.43% (2×) and 100.00%
  % deconjugation of TβMCA: 100.00%
[8]
  inhibition of B. longum BSH (in words): ineffective
[9]
  bactericidal effect on BSH-deleted B. theta (CFUs after 24 h): significantly affect the growth
[10]
  % deconjugation of TCA: 100.00%
  % deconjugation of TDCA: 99.71% and 99.30% and 99.38%
  % deconjugation of TUDCA: 98.92% and 98.62% and 98.71%
  % deconjugation of TβMCA: 100.00%
[11]; 100 μM CAPE
  inhibition of deconjugation in L. plantarum (in words): inhibit deconjugation in L. plantarum
[11]; [16]
  % deconjugation of TCA: 10.67% and 33.19% and 53.29%
  % deconjugation of TDCA: 47.57% and 82.98% and 93.57%
  % deconjugation of TUDCA: 6.80% and 1.73% and 3.54%
  % deconjugation of TβMCA: 0.06% and 0.59% and 0.95%
[12]
  % deconjugation of TCA: 1.46% and 1.06% and 0.00%
  % deconjugation of TDCA: 5.47% and 3.03% and 1.28%
  % deconjugation of TUDCA: 82.37% and 94.25% and 87.91%
  % deconjugation of TβMCA: 88.92% and 78.15% and 71.86%

B1: B. longum BSH (Bifidobacterium longum) (protein)
chain: MCTGVRFSDDEGNTYFGRNLDWSFSYGETILVTPRGYHYDTVFGAGGKAKPNAVIGVGVVMADRPMYFDCANEHGLAIAGLNFPGYASFVHEPVEGTENVATFEFPLWVARNFDSVDEVEETLRNVTLVSQIVPGQQESLLHWFIGDGKRSIVVEQMADGMHVHHDDVDVLTNQPTFDFHMENLRNYMCVSNEMAEPTSWGKASLTAWGAGVGMHGIPGDVSSPSRFVRVAYTNAHYPQQNDEAANVSRLFHTLGSVQMVDGMAKMGDGQFERTLFTSGYSSKTNTYYMNTYDDPAIRSYAMADYDMDSSELISVAR
[13]
  Km: 8.3 ± 2.5 mM
  kcat: 0.115 s⁻¹
  kcat/Km: 13.3 M⁻¹ s⁻¹
[14]; [17]
  Km: 4.14 mM
[14]; [18]
  Km: 4.1 ± 2.5 mM
[15]; [17]
  Km: 2.28 mM
[15]; [18]
  Km: 2.3 ± 0.3 mM
